Results reported in patent US9562036B2, “Fluoromethyl-substituted pyrrole carboxamides as CaV2.2 calcium channel blockers” (GRÜNENTHAL GMBH, priority 2013, dated 2017).

molecular target: T1, Human CaV2.2 channels (Homo sapiens, UniProt Q00975); assay: Fluorescent assay for CaV2.2 channels using potassium depolarization to induce channel opening (FLIPR, Fluo 4); format: cell-based; conditions: 3 μM test compound; 30 mM KCl alternative assay buffer (inactivated channel state); HEK293 cells; read-out: %-Inhib (CaV2.2) @3 μM @30 mM KCl
T1 construct: expressed in transfected cells; also stably expressing Kir2.3)
From the text: In the process, the Ca^2+ influx is quantified in the FLIPR assay with the aid of a Ca^2+-sensitive dye (type Fluo-4, Molecular Probes Europe BV, Leiden, the Netherlands) in a fluorescent imaging plate reader (FLIPR 3, Molecular Devices, Sunnyvale, USA), as described hereinafter.
2. Assay Descriptions and Biological Data: 2.1 Fluorescent Assay for CaV2.2 Channels Using Potassium Depolarization to Induce Channel Opening
Human CaV2.2 channels were stably expressed in HEK293 cells together with alpha2-delta and beta subunits of voltage gated calcium channels. In addition, an inwardly rectifying potassium channel (Kir2.3) was stably expressed in these cells to augment control of the cell membrane potential by the concentration of extracellular potassium ions. Raise of the extracellular potassium concentration leads to depolarization of the membrane potential and thus regulates the voltage dependent state of CaV2.2 channels. For preparation, cells were seeded in black poly-D-lysine coated 96-well plates (Becton Dickinson, Biocoat 4640) in 100 μL medium [500 mL DMEM/F-12 plus Glutamax (Invitrogen 31331-093) plus 5.5 mL MEM NEAA 100× (Invitrogen 11140-035) plus 50 mL FBS decomplemented (Invitrogen 10270-106) plus 200 μg/mL Geneticin (Invitrogen 10131-027) plus 50 μg/mL Hygromycin B (Invitrogen 10687-010) plus 2 μg/mL Blasticidin (anti-bl5b Invivo-Gen) plus 0.2 μg/mL Puromycin (A 11138-03)] at a cell density of 30.000 cells per well. Plates were incubated at 37° C. (5% CO2) for 20 to 23 h. On the day of experiment medium was discarded and cells were loaded with Fluo 4 by addition of 100 μL of basic assay buffer (10 mM HEPES, 1 mM KCl, 149 mM NaCl, 0.8 mM CaC2, 1.7 mM MgCl2, 10 mM Glucose, 0.1% BSA. pH 7.4) containing 2 μM Fluo 4 (Molecular Probes; F-14201), 0.01% pluronic acid (Molecular Probes; P-6866) and 2.5 mM probenecid (Molecular Probes; P36400). Cells were incubated in the dark at 25° C. for 60 min. Then dye containing buffer was discarded and 100 μL basic (1 mM KCl) or alternative (30 mM KCl) assay buffer was added. The alternative assay buffer contained altered concentrations of KCl (30 mM) and NaCl (120 mM) and was used in order to promote the inactivated channel state. After that 25 μL of basic or alternative assay buffer with or without test compound were added and cells were incubated again in the dark at 25° C. for 15 min. Fluorescence intensity was measured on a FLIPR 3 instrument (Molecular Devices Corp., Sunnyvale, Calif.) with excitation at 480 nm and emission at 535 nm. After continuously reading fluorescence for 30 sec, 50 μL of basic assay buffer containing 210 mM KCl (NaCl omitted) were added for depolarization. Peak fluorescent signal intensity was determined and the amplitude of the peak signal, normalized to base line, was used to measure channel inhibition by test compounds.

T1 sequence (Q00975 whole entry): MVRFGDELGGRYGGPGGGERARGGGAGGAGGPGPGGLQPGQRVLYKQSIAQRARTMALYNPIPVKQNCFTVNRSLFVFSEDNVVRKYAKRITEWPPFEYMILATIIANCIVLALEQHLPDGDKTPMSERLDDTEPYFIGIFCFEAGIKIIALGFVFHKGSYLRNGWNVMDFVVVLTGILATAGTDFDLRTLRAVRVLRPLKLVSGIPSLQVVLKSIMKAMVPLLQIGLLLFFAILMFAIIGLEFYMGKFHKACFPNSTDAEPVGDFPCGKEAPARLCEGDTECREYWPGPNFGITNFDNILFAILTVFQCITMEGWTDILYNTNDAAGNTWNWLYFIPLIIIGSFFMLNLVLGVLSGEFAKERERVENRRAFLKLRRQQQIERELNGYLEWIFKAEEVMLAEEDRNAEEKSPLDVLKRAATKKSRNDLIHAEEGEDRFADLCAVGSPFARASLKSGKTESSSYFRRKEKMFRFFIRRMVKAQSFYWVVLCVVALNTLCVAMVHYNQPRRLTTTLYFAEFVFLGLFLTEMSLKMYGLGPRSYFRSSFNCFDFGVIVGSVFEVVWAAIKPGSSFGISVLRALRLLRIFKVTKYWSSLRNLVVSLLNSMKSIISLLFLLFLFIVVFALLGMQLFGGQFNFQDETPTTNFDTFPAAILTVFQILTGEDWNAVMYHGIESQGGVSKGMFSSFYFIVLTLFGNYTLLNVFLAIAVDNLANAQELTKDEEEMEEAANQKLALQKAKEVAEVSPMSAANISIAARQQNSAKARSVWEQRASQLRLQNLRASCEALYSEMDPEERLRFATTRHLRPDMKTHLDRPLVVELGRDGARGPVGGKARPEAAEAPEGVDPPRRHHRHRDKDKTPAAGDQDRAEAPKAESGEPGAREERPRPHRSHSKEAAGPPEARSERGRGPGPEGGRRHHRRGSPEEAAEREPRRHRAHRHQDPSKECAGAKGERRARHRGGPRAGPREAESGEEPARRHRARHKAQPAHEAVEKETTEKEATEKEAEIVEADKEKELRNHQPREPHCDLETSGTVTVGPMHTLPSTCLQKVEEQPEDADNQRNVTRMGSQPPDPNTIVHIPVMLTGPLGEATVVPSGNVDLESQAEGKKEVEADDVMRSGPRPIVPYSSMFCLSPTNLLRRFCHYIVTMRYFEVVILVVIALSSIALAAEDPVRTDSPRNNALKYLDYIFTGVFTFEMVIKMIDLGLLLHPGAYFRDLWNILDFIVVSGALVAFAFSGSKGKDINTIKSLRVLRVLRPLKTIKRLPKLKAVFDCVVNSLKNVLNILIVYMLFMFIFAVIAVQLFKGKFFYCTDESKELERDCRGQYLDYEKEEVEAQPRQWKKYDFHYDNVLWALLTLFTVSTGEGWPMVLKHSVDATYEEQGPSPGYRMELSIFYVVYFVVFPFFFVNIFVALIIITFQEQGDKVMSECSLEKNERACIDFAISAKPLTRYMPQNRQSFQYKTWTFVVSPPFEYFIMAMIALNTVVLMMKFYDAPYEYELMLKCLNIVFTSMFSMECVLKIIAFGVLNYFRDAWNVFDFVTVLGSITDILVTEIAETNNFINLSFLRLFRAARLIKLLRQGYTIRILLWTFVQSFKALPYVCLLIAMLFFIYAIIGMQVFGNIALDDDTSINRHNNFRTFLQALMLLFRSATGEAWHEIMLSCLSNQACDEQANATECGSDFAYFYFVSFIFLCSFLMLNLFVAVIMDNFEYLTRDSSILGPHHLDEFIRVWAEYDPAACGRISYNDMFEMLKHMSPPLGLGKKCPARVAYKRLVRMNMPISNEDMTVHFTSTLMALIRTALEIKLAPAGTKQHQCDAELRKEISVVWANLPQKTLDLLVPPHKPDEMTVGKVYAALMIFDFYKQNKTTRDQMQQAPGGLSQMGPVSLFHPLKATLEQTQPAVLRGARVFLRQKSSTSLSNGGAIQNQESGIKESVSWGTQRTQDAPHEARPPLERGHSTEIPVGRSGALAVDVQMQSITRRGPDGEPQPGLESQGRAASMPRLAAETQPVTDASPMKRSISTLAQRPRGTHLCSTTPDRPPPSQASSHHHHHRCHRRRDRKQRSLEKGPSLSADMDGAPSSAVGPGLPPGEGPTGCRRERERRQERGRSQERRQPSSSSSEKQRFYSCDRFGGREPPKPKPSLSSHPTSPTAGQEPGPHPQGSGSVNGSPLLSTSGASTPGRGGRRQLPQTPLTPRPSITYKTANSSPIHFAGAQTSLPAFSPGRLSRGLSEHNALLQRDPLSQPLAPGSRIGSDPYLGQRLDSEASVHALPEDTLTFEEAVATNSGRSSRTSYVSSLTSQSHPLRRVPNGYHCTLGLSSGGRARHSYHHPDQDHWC

Row | Structure (SMILES) | inhibition at 3 µM [%]
1 | Cc1c(-c2ncc(Cl)cn2)c(C(=O)N(C)CC(C)(C)C(=O)N(C)C)n(Cc2ccccc2)c1C(F)(F)F [Example 58, 1-Benzyl-3-(5-chloro-pyrimidin-2-yl)-N-[2-(dimethyl-carbamoyl)-2-methyl-propyl]-N,4-dimethyl-5-(trifluoromethyl)-1H-pyrrole-2-carboxylic acid amide] | > 95
2 | Cc1c(-c2ccc(Cl)cn2)c(C(=O)NC(C)C)n(Cc2ccccc2)c1C(F)(F)F [Example 53, 1-Benzyl-3-(5-chloro-pyridin-2-yl)-N-isopropyl-4-methyl-5-(trifluoromethyl)-1H-pyrrole-2-carboxylic acid amide] | 75 to 95
3 | Cc1cc(Cl)ncc1-c1c(C)c(C(F)(F)F)n(Cc2ccccc2)c1C(=O)N1CCOCC1 [Example 27, [1-Benzyl-3-(6-chloro-4-methyl-pyridin-3-yl)-4-methyl-5-(trifluoromethyl)-1H-pyrrol-2-yl]-morpholin-4-yl-methanone] | 75 to 95
4 | COc1ncc(-c2c(C)c(C(F)(F)F)n(Cc3ccccc3)c2C(=O)N2CCOCC2)cn1 [Example 14, [1-Benzyl-3-(2-methoxy-pyrimidin-5-yl)-4-methyl-5-(trifluoromethyl)-1H-pyrrol-2-yl]-morpholin-4-yl-methanone] | 40 to 75
5 | Cc1c(-c2ncccn2)c(C(=O)N2CCOCC2)n(Cc2ccccc2)c1C(F)(F)F [Example 40, (1-Benzyl-4-methyl-3-(pyrimidin-2-yl)-5-(trifluoromethyl)-1H-pyrrol-2-yl)(morpholino)methanone] | 40 to 75
6 | Cc1c(-c2ncc(Cl)cn2)c(C(=O)N2CCOCC2)n(Cc2ccccc2)c1C(F)(F)F [Example 25, [1-Benzyl-3-(5-chloro-pyrimidin-2-yl)-4-methyl-5-(trifluoromethyl)-1H-pyrrol-2-yl]-morpholin-4-yl-methanone] | > 95
7 | Cc1c(-c2ncc(C(F)(F)F)cc2F)c(C(=O)N(C)CC(C)(C)C)n(Cc2ccccc2)c1C(F)(F)F [Example 17, 1-Benzyl-N-(2,2-dimethyl-propyl)-3-[3-fluoro-5-(trifluoromethyl)-pyridin-2-yl]-N,4-dimethyl-5-(trifluoromethyl)-1H-pyrrole-2-carboxylic acid amide] | 75 to 95
8 | COc1cnc(-c2c(C)c(C(F)(F)F)n(Cc3ccccc3)c2C(=O)N2CCOCC2)cn1 [Example 05, (1-Benzyl-3-(5-methoxypyrazin-2-yl)-4-methyl-5-(trifluoromethyl)-1H-pyrrol-2-yl)(morpholino)methanone] | 40 to 75
9 | Cc1noc(C)c1-c1c(C)c(C(F)(F)F)n(Cc2ccccc2)c1C(=O)N1CCOCC1 [Example 23, [1-Benzyl-3-(3,5-dimethyl-isoxazol-4-yl)-4-methyl-5-(trifluoromethyl)-1H-pyrrol-2-yl]-morpholin-4-yl-methanone] | 75 to 95
10 | COc1cnc(-c2c(C)c(C(F)(F)F)n(Cc3ccccc3)c2C(=O)N(C)CC(C)(C)C)nc1 [Example 30, 1-Benzyl-3-(5-methoxypyrimidin-2-yl)-N,4-dimethyl-N-neopentyl-5-(trifluoromethyl)-1H-pyrrole-2-carboxamide] | 75 to 95
11 | Cc1c(-c2ncc(C(F)(F)F)cc2F)c(C(=O)N2CCOCC2)n(Cc2ccccc2)c1C(F)(F)F [Example 24, [1-Benzyl-3-[3-fluoro-5-(trifluoromethyl)-pyridin-2-yl]-4-methyl-5-(trifluoromethyl)-1H-pyrrol-2-yl]-morpholin-4-yl-methanone] | > 95
12 | Cc1c(-c2ncc(Cl)cn2)c(C(=O)N(C)CC(C)(C)C(N)=O)n(Cc2ccccc2)c1C(F)(F)F [Example 48, 1-Benzyl-N-(2-carbamoyl-2-methyl-propyl)-3-(5-chloro-pyrimidin-2-yl)-N,4-dimethyl-5-(trifluoromethyl)-1H-pyrrole-2-carboxylic acid amide] | > 95
13 | Cc1c(-c2ccc(Cl)cn2)c(C(=O)N2CCOCC2)n(Cc2ccccc2)c1C(F)(F)F [Example 42, [1-Benzyl-3-(5-chloro-pyridin-2-yl)-4-methyl-5-(trifluoromethyl)-1H-pyrrol-2-yl]-morpholin-4-yl-methanone] | > 95
14 | COc1cc(C)c(-c2c(C)c(C(F)(F)F)n(Cc3ccccc3)c2C(=O)N(C)CC(C)(C)C)cn1 [Example 21, 1-Benzyl-N-(2,2-dimethyl-propyl)-3-(6-methoxy-4-methyl-pyridin-3-yl)-N,4-dimethyl-5-(trifluoromethyl)-1H-pyrrole-2-carboxylic acid amide] | 75 to 95
15 | Cc1c(-c2ncc(Cl)cn2)c(C(=O)N2CCNC(=O)C2)n(Cc2ccccc2)c1C(F)(F)F [Example 47, 4-[1-Benzyl-3-(5-chloro-pyrimidin-2-yl)-4-methyl-5-(trifluoromethyl)-1H-pyrrole-2-carbonyl]-piperazin-2-one] | 40 to 75
16 | Cc1c(-c2cn[nH]c2)c(C(=O)N2CCOCC2)n(Cc2ccccc2)c1C(F)(F)F [Example 10, (1-Benzyl-4-methyl-3-(1H-pyrazol-4-yl)-5-(trifluoromethyl)-1H-pyrrol-2-yl)(morpholino)methanone] | 40 to 75
17 | Cc1c(-c2cncnc2)c(C(=O)N(C)CC(C)(C)C)n(Cc2ccccc2)c1C(F)(F)F [Example 11, 1-Benzyl-N-(2,2-dimethyl-propyl)-N,4-dimethyl-3-pyrimidin-5-yl-5-(trifluoromethyl)-1H-pyrrole-2-carboxylic acid amide] | 75 to 95
18 | Cc1c(-c2ccc(Cl)cn2)c(C(=O)N(C)CC(C)(C)C)n(Cc2ccccc2)c1C(F)(F)F [Example 41, 1-Benzyl-3-(5-chloro-pyridin-2-yl)-N-(2,2-dimethyl-propyl)-N,4-dimethyl-5-(trifluoromethyl)-1H-pyrrole-2-carboxylic acid amide] | > 95
19 | Cc1c(-c2ccc(O)nc2)c(C(=O)N(C)CC(C)(C)C)n(Cc2ccccc2)c1C(F)(F)F [Example 03, 1-Benzyl-3-(6-hydroxypyridin-3-yl)-N,4-dimethyl-N-neopentyl-5-(trifluoromethyl)-1H-pyrrole-2-carboxamide] | 40 to 75
20 | Cc1noc(C)c1-c1c(C)c(C(F)(F)F)n(Cc2ccccc2)c1C(=O)N(C)CC(C)(C)C [Example 16, 1-Benzyl-3-(3,5-dimethyl-isoxazol-4-yl)-N-(2,2-dimethyl-propyl)-N,4-dimethyl-5-(trifluoromethyl)-1H-pyrrole-2-carboxylic acid amide] | 75 to 95
21 | Cc1c(-c2ncc(F)cn2)c(C(=O)N(C)CC(C)(C)C)n(Cc2ccccc2)c1C(F)(F)F [Example 33, 1-Benzyl-3-(5-fluoropyrimidin-2-yl)-N,4-dimethyl-N-neopentyl-5-(trifluoromethyl)-1H-pyrrole-2-carboxamide] | > 95
22 | Cc1c(-c2cnn(C)c2)c(C(=O)N2CCOCC2)n(Cc2ccccc2)c1C(F)(F)F [Example 08, (1-Benzyl-4-methyl-3-(1-methyl-1H-pyrazol-4-yl)-5-(trifluoromethyl)-1H-pyrrol-2-yl)(morpholino)methanone] | 40 to 75
23 | Cc1c(-c2cnccn2)c(C(=O)N2CCOCC2)n(Cc2ccccc2)c1C(F)(F)F [Example 39, (1-Benzyl-4-methyl-3-(pyrazin-2-yl)-5-(trifluoromethyl)-1H-pyrrol-2-yl)(morpholino)methanone] | 40 to 75
24 | Cc1c(-c2ncc(Cl)cn2)c(C(=O)N(C)C(C)C)n(Cc2ccccc2)c1C(F)(F)F [Example 54, 1-Benzyl-3-(5-chloro-pyrimidin-2-yl)-N-isopropyl-N,4-dimethyl-5-(trifluoromethyl)-1H-pyrrole-2-carboxylic acid amide] | > 95
25 | Cc1c(-c2ccn(C)n2)c(C(=O)N(C)C(C)C)n(Cc2ccccc2)c1C(F)(F)F [Example 51, 1-Benzyl-N-isopropyl-N,4-dimethyl-3-(1-methyl-1H-pyrazol-3-yl)-5-(trifluoromethyl)-1H-pyrrole-2-carboxylic acid amide] | 75 to 95
